Experiments:
Pim 3 = Pim 3 (Homo sapiens, UniProt Q86V86); assay: Pim 3 AlphaScreen assay (high ATP)
[1] = tested on: KMS11 (human myeloma cell line); assay: Cell Proliferation Assay (CellTiter-Glo, 3 days); assay type: cell-based; details: KMS-11, 72 h, KMS11-luc cells
Method in brief: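 KMS11 myeloma cells, 2000 per well in IMDM with 10% FBS, exposed to compound for 3 days at 37° C. Viability read by CellTiter-Glo luminescence; EC50 derived.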

Pim 2 = Pim 2 (Homo sapiens, UniProt Q9P1W9); assay: Pim 2 AlphaScreen assay (high ATP)
Description: The activity of Pim 1, Pim 2, & Pim 3 is measured using a homogeneous bead based system quantifying the amount of phosphorylated peptide substrate resulting from kinase-catalyzed phosphoryl transfer to a peptide substrate. Compounds to be tested are dissolved in 100% DMSO and directly distributed to a white 384-well plate at 0.25 μl per well. […] This is followed by the addition of 5 μl/well of Pim 1, Pim 2 or Pim 3 kinase in assay buffer (concentrations described below). Final assay concentrations (described below) are in 2.5% DMSO. The reactions are performed for ˜2 hours, then stopped by the addition of 10 μl of 0.75 μg/ml anti-phospho Ser/Thr antibody (Cell Signaling), 10 μg/ml Protein A AlphaScreen beads (Perkin Elmer), and 10 μg/ml streptavidin coated AlphaScreen beads in stop/detection buffer (50 mM EDTA, 95 mM Tris, pH=7.5, 0.01% Tween-20). The stopped reactions are incubated overnight in the dark. The phosphorylated peptide is detected via an oxygen anion initiated chemiluminescence/fluorescence cascade using the Envision plate reader (Perkin Elmer).

Pim 1 = Pim 1 (Homo sapiens, UniProt P11309); assay: Pim 1 AlphaScreen assay (high ATP)
Chain of Pim 1 (P11309 whole entry): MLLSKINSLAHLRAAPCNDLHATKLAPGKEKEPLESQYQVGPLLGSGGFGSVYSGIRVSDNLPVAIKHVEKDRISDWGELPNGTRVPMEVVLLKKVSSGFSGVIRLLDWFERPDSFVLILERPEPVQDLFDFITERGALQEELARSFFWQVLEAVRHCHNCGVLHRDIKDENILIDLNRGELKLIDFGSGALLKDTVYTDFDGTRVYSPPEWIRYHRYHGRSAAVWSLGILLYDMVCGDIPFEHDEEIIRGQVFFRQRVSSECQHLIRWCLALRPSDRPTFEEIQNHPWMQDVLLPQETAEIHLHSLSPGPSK

Chain of Pim 2 (Q9P1W9 whole entry): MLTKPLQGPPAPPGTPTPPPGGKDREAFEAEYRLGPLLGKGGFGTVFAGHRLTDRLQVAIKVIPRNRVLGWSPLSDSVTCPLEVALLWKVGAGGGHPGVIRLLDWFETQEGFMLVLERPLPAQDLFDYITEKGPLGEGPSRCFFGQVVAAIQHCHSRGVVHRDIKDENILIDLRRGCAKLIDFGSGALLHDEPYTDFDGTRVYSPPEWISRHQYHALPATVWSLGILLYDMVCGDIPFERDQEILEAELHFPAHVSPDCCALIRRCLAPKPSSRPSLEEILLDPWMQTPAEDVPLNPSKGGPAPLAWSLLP

| Structure (SMILES) | IC50 (Pim 3) | EC50 [1] | IC50 (Pim 2) | IC50 (Pim 1) |
| --- | --- | --- | --- | --- |
| C[C@H]1CN(c2ccncc2NC(=O)c2ccc(F)c(-c3c(F)cc(C4(O)CCC4)cc3F)n2)C[C@@H](N)[C@@H]1O [Example 76, N-(4-((3R,4R,5S)-3-amino-4-hydroxy-5-methylpiperidin-1-yl)pyridin-3-yl)-6-(2,6-difluoro-4-(1-hydroxycyclobutyl)phenyl)-5-fluoropicolinamide] | 0.22 nM | 9 nM | 0.71 nM | 0.01 nM |
| CCOC(C)(C)c1cc(F)c(-c2nc(C(=O)Nc3cnccc3[C@H]3C[C@@H](N)[C@H](O)[C@@H](C)C3)ccc2F)c(F)c1 [Example 146, N-(4-((1R,3R,4R,5S)-3-amino-4-hydroxy-5-methylcyclohexyl)pyridin-3-yl)-6-(4-(2-ethoxypropan-2-yl)-2,6-difluorophenyl)-5-fluoropicolinamide] | 6.34 nM | 526 nM | 5.58 nM | 0.09 nM |
| C[C@H]1CN(c2ccncc2NC(=O)c2ccc(F)c(-c3c(F)cc(OCCO)cc3F)n2)C[C@@H](N)[C@@H]1O [Example 21, N-(4-((3R,4R,5S)-3-amino-4-hydroxy-5-methylpiperidin-1-yl)pyridin-3-yl)-6-(2,6-difluoro-4-(2-hydroxyethoxy)phenyl)-5-fluoropicolinamide] | 0.34 nM | 13 nM | 1.19 nM | 0.02 nM |
| CCc1cc(F)c(-c2nc(C(=O)Nc3cnccc3N3C[C@@H](N)[C@H](O)[C@@H](C)C3)ccc2F)c(F)c1 [Example 235, N-(4-((3R,4R,5S)-3-amino-4-hydroxy-5-methylpiperidin-1-yl)pyridin-3-yl)-6-(4-ethyl-2,6-difluorophenyl)-5-fluoropicolinamide] | 0.25 nM | 20 nM | 0.87 nM | 0.02 nM |
| C[C@H]1C[C@@H](c2ccncc2NC(=O)c2ccc(F)c(-c3c(F)cc(OCC(C)(C)O)cc3F)n2)C[C@@H](N)[C@@H]1O [Example 51, N-(4-((1R,3R,4R,5S)-3-amino-4-hydroxy-5-methylcyclohexyl)pyridin-3-yl)-6-(2,6-difluoro-4-(2-hydroxy-2-methylpropoxy)phenyl)-5-fluoropicolinamide] | 1.02 nM | 30 nM | 4.34 nM | 0.03 nM |
| C[C@H]1CN(c2ccncc2NC(=O)c2ccc(F)c(-c3c(F)cc(C4CCS(=O)(=O)CC4)cc3F)n2)C[C@@H](N)[C@@H]1O [Example 204, N-(4-((3R,4R,5S)-3-amino-4-hydroxy-5-methylpiperidin-1-yl)pyridin-3-yl)-6-(4-(1,1-dioxidotetrahydro-2H-thiopyran-4-yl)-2,6-difluorophenyl)-5-fluoropicolinamide] | 0.14 nM | 115 nM | 0.38 nM | 0.01 nM |
| COC1(c2cc(F)c(-c3nc(C(=O)Nc4cnccc4[C@H]4C[C@@H](N)[C@H](O)[C@@H](C)C4)ccc3F)c(F)c2)COC1 [Example 52, N-(4-((1R,3R,4R,5S)-3-amino-4-hydroxy-5-methylcyclohexyl)pyridin-3-yl)-6-(2,6-difluoro-4-(3-methoxyoxetan-3-yl)phenyl)-5-fluoropicolinamide] | 2.86 nM | 55 nM | 4.79 nM | 0.05 nM |
| C[C@@H]1C[C@H](N)C[C@H](c2ccncc2NC(=O)c2ccc(F)c(-c3c(F)cc(CCO)cc3F)n2)C1 [Example 33, N-(4-((1R,3S,5S)-3-amino-5-methylcyclohexyl)pyridin-3-yl)-6-(2,6-difluoro-4-(2-hydroxyethyl)phenyl)-5-fluoropicolinamide] | 1 nM | 13 nM | 1.52 nM | 0.02 nM |
| C[C@@H]1C[C@H](N)C[C@H](c2ccncc2NC(=O)c2ccc(F)c(-c3c(F)cc4c(c3F)OCC[C@@]4(C)O)n2)C1 [Example 240, N-(4-((1R,3S,5S)-3-amino-5-methylcyclohexyl)pyridin-3-yl)-6-((R)-6,8-difluoro-4-hydroxy-4-methylchroman-7-yl)-5-fluoropicolinamide] | 0.43 nM | 23 nM | 1.67 nM | 0.02 nM |
| C[C@@H]1C[C@H](N)C[C@H](c2ccncc2NC(=O)c2ccc(F)c(-c3c(F)cc(OCCO)cc3F)n2)C1 [Example 229, N-(4-((1R,3S,5S)-3-amino-5-methylcyclohexyl)pyridin-3-yl)-6-(2,6-difluoro-4-(2-hydroxyethoxy)phenyl)-5-fluoropicolinamide] | 0.82 nM | 26 nM | 2.58 nM | 0.03 nM |
| C[C@H]1C[C@@H](c2ccncc2NC(=O)c2ccc(F)c(-c3c(F)cc(OC4CCOC4)cc3F)n2)C[C@@H](N)[C@@H]1O (stereo in doubt) [Example 70, N-(4-((1R,3R,4R,5S)-3-amino-4-hydroxy-5-methylcyclohexyl)pyridin-3-yl)-6-(2,6-difluoro-4-((S)-tetrahydrofuran-3-yloxy)phenyl)-5-fluoropicolinamide] | 1.15 nM | 68 nM | 4.01 nM | 0.04 nM |
| CC(C)Oc1cc(F)c(-c2nc(C(=O)Nc3cnccc3[C@H]3C[C@@H](N)[C@H](O)[C@@H](C)C3)ccc2F)c(F)c1 [Example 62, N-(4-((1R,3R,4R,5S)-3-amino-4-hydroxy-5-methylcyclohexyl)pyridin-3-yl)-6-(2,6-difluoro-4-isopropoxyphenyl)-5-fluoropicolinamide] | 0.35 nM | 52 nM | 1.03 nM | 0.01 nM |
| C[C@@H]1C[C@H](N)C[C@H](c2ccncc2NC(=O)c2cccc(-c3c(F)cc(OC4CCOCC4)cc3F)n2)C1 [Example 187, N-(4-((1R,3S,5S)-3-amino-5-methylcyclohexyl)pyridin-3-yl)-6-(2,6-difluoro-4-(tetrahydro-2H-pyran-4-yloxy)phenyl)picolinamide] | 1.28 nM | 210 nM | 2.47 nM | 0.03 nM |
| C[C@@H]1C[C@H](N)C[C@H](c2ccncc2NC(=O)c2ccc(F)c(-c3c(F)cc(N4CCOCC4)cc3F)n2)C1 [Example 168, N-(4-((1R,3S,5S)-3-amino-5-methylcyclohexyl)pyridin-3-yl)-6-(2,6-difluoro-4-morpholinophenyl)-5-fluoropicolinamide] | 0.95 nM | 52 nM | 1.36 nM | 0.02 nM |
| CC(C)[C@@H]1C[C@H](N)C[C@H](c2ccncc2NC(=O)c2ccc(F)c(-c3c(F)cc(C4(O)CCC4)cc3F)n2)C1 [Example 133, N-(4-((1R,3S,5S)-3-amino-5-isopropylcyclohexyl)pyridin-3-yl)-6-(2,6-difluoro-4-(1-hydroxycyclobulyl)phenyl)-5-fluoropicolinamide] | 0.7 nM | 31 nM | 1.77 nM | 0.02 nM |
| CC(C)OCc1cc(F)c(-c2nc(C(=O)Nc3cnccc3[C@@H]3C[C@H](C)C[C@H](N)C3)ccc2F)c(F)c1 [Example 147, N-(4-((1R,3S,5S)-3-amino-5-methylcyclohexyl)pyridin-3-yl)-6-(2,6-difluoro-4-(isopropoxymethyl)phenyl)-5-fluoropicolinamide] | 1.03 nM | 146 nM | 2.77 nM | 0.02 nM |
| C[C@H]1CN(c2ccncc2NC(=O)c2ccc(F)c(-c3c(F)cc(C4(F)CCOCC4)cc3F)n2)C[C@@H](N)[C@@H]1O [Example 195, N-(4-((3R,4R,5S)-3-amino-4-hydroxy-5-methylpiperidin-1-yl)pyridin-3-yl)-6-(2,6-difluoro-4-(4-fluorotetrahydro-2H-pyran-4-yl)phenyl)-5-fluoropicolinamide] | 0.18 nM | 36 nM | 0.39 nM | 0.01 nM |
| C[C@@H]1C[C@H](N)C[C@H](c2ccncc2NC(=O)c2ccc(F)c(-c3c(F)cc(CC(C)(C)O)cc3F)n2)C1 [Example 84, N-(4-((1R,3S,5S)-3-amino-5-methylcyclohexyl)pyridin-3-yl)-6-(2,6-difluoro-4-(2-hydroxy-2-methylpropyl)phenyl)-5-fluoropicolinamide] | 0.52 nM | 29 nM | 1.48 nM | 0.02 nM |
| C[C@@H]1C[C@H](N)C[C@H](c2ccncc2NC(=O)c2ccc(F)c(-c3c(F)cc4c(c3F)OCC[C@]4(C)O)n2)C1 [Example 239, N-(4-((1R,3S,5S)-3-amino-5-methylcyclohexyl)pyridin-3-yl)-6-((S)-6,8-difluoro-4-hydroxy-4-methylchroman-7-yl)-5-fluoropicolinamide] | 1.1 nM | 31 nM | 1.72 nM | 0.01 nM |
| Cc1cc(F)c(-c2nc(C(=O)Nc3cnccc3[C@@H]3C[C@H](C)C[C@H](N)C3)c(N)cc2F)c(F)c1 [Example 222, 3-amino-N-(4-((1R,3S,5S)-3-amino-5-methylcyclohexyl)pyridin-3-yl)-6-(2,6-difluoro-4-methylphenyl)-5-fluoropicolinamide] | 0.35 nM | 23 nM | 0.81 nM | 0.01 nM |
| COCc1cc(F)c(-c2nc(C(=O)Nc3cnccc3N3C[C@@H](N)[C@H](O)[C@@H](C)C3)ccc2F)c(F)c1 [Example 38, N-(4-((3R,4R,5S)-3-amino-4-hydroxy-5-methylpiperidin-1-yl)pyridin-3-yl)-6-(2,6-difluoro-4-(methoxymethyl)phenyl)-5-fluoropicolinamide] | 0.47 nM | 10 nM | 1.35 nM | 0.03 nM |
| C[C@H]1CN(c2ccncc2NC(=O)c2ccc(F)c(-c3c(F)cc([C@H](O)CO)cc3F)n2)C[C@@H](N)[C@@H]1O [Example 233, N-(4-((3R,4R,5S)-3-amino-4-hydroxy-5-methylpiperidin-1-yl)pyridin-3-yl)-6-(4-((S)-1,2-dihydroxyethyl)-2,6-difluorophenyl)-5-fluoropicolinamide] | 1.03 nM | 20 nM | 2.2 nM | 0.04 nM |
